In ChEMBL document CHEMBL1144501, “Synthesis, characterization and biological activity of complexes of lanthanum(III) with 2-(1'-phenyl- 2'-carboxyl-3'-aza-n-butyl)-1,10-phenanthroline and 2-(1'-p-phenol-2'-carboxyl-3'-aza-n-butyl)-1,10-phenanthroline” (Bioorg Med Chem, 2007):

Key:
Assay type in all cases: cell-based
HL-60 = experiment: Cytotoxicity against human HL60 cells after 72 hrs; settings: HL-60, 72 h
[1] = Cytotoxicity against human BGC823 cells after 72 hrs; settings: BGC-823, 72 h
[2] = Cytotoxicity against human Bel7402 cells after 72 hrs; settings: Bel-7402, 72 h
[3] = Cytotoxicity against human PC-3MIE8 cells after 72 hrs; settings: PC-3MIE8, 72 h
HeLa = experiment: Cytotoxicity against human HeLa cells after 72 hrs
MDA-MB-435 = experiment: Cytotoxicity against human MDA-MB-435 cells after 72 hrs; settings: MDA-MB-435, 72 h

Measured: IC50

O=C(O)C(Cc1ccccc1)NCc1ccc2ccc3cccnc3c2n1 (configuration not stated)
> 100 µM: HL-60 | [1] | [2] | [3] | HeLa | MDA-MB-435

O=C(O)C(Cc1ccc(O)cc1)NCc1ccc2ccc3cccnc3c2n1 (configuration not stated)
> 100 µM: HL-60 | [1] | [2] | [3] | HeLa | MDA-MB-435
